Results as given in patent publication US20250288634A1, “Fenugreek Formulation for Lowering Blood Glucose and Weight Loss” (priority 2024, published 2025).
Like-named read-outs stand apart in the source and are kept apart here.

Experiments:
[1] = target: dipeptidyl-peptidase 4 (DPP4) (Homo sapiens, UniProt P27487); details: cited from earlier work
[2] = cited from earlier work
[3] = Clinical Case Example #2: regulating blood glucose levels, body weight, tolerability; assay type: in vivo, human; details: within just a few days of using, person with type-2 diabetes on metformin
Description: Clinical Case Example #2: The therapeutic composition (i.e. fenugreek formulation) used in Clinical Case Example #1 above was also tested for efficacy on regulating blood glucose levels. The subject was a person, height of 5 feet 6 inches and with baseline a body weight of about 175 lbs. Despite long-term management of their type-2 diabetes with metformin, they still had blood glucose readings almost continuously in the low to high 200s mg/dL (e.g. 204, 228, 277) with hemoglobin A1C of 7.2%. A typical fasting blood sugar for them was 189.
Due to consistently high blood glucose levels, their endocrinologist prescribed Januvia (sitagliptin, a dipeptidyl peptidase-4 (DPP-4) inhibitor). […]
When sufficiently recovered from the pancreatitis, they started using the fenugreek formulation of this invention (combination of fenugreek, curcumin, and chromium picolinate) while they continued taking metformin. Within a few days of starting the fenugreek formulation, their blood glucose readings declined from well over 200 for most of the day, to around 180, with excursions into the mid-200s only after high-sugar meals (whereas prior to this regimen, their blood glucose was in the 200s at a steady state). Occasionally, while on the fenugreek formulation regimen, they had blood glucose readings down to 110. This was the first time in half a decade that the subject had readings as low as 110. […]

Chain of dipeptidyl-peptidase 4 (DPP4) (P27487 whole entry, species assumed): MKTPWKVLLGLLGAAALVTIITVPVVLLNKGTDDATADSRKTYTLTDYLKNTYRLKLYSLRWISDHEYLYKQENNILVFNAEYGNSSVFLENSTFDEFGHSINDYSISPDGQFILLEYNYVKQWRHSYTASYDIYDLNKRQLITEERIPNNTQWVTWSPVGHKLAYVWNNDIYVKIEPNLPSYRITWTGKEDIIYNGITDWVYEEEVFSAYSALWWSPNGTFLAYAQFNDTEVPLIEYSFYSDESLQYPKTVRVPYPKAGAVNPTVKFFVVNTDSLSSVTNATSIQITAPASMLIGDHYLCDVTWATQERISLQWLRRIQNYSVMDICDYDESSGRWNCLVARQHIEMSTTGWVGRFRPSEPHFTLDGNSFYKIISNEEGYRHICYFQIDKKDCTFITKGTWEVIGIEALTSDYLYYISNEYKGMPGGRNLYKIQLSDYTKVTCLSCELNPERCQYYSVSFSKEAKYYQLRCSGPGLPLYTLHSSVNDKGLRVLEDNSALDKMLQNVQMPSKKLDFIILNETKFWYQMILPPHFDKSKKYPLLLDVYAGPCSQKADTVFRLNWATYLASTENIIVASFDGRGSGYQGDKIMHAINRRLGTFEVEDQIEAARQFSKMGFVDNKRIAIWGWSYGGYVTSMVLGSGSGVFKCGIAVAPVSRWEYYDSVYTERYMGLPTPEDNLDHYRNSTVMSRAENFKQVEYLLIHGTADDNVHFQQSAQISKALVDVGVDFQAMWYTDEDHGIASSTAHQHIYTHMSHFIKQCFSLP

For `COc1cc(/C=C/C(=O)CC(=O)/C=C/c2ccc(O)c(OC)c2)ccc1O` [curcumin], the “action on DPP4” value [1] is listed as “inhibits”.

For `[Cr]` [chromium], the safety ([2]; 200-1,000 μg daily for up to two years) is given as “used safely” and the safety ([2]; up to 1,000 μg daily for up to six months) is given as “used safely”.

For `N[C@@H](CC(=O)N1CCn2c(nnc2C(F)(F)F)C1)Cc1cc(F)c(F)cc1F` [Januvia, sitagliptin], the adverse events [3] was “diarrhea and signs of acute pancreatitis”.
